One may read the EC50 as the concentration giving half of the maximal effect. The term IC50 denotes the midpoint of a concentration-inhibition curve. A higher IC50 goes with weaker potency in that assay.

Data on one compound can be found in US20080096811A1, “[…] VPAC2 RECEPTOR PEPTIDE AGONISTS” (Eli Lilly and Company, published 2008).

Data set [1] concerns the target T1, human VPAC2 (Homo sapiens, UniProt P41587).
T1 construct: expressed in transfected cells
T1 sequence (P41587 24-438): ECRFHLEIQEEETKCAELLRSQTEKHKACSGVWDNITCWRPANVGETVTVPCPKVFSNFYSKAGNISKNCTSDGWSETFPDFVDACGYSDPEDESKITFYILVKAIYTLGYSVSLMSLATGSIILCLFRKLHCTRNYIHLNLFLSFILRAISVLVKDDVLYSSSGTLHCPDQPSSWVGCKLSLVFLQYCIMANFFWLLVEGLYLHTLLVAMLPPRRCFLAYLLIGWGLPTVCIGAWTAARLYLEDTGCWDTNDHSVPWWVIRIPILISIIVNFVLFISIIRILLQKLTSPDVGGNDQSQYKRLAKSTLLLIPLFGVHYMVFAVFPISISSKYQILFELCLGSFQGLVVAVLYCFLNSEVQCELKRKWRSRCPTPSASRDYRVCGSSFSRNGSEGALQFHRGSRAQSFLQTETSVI
In words: Alpha screen cAMP in vitro potency, human VPAC2. In kind it is cell-based.

In data set [2] the target is rat VPAC2 receptor (Rattus norvegicus, UniProt P35000). In words: cell-based.
Chain of rat VPAC2 receptor (P35000 23-437): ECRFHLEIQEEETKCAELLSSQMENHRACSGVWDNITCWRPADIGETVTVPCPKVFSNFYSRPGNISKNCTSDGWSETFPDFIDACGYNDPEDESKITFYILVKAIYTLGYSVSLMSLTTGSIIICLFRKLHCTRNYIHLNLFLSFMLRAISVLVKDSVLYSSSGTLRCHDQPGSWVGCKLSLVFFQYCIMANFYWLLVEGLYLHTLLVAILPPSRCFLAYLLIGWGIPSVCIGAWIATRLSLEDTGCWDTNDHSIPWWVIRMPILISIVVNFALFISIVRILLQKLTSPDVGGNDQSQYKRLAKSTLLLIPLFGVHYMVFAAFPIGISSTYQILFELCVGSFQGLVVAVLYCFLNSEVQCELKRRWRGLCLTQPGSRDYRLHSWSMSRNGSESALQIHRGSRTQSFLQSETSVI
Description: DiscoveRx: A CHO—S cell line stably expressing human VPAC2 receptor in a 96-well microtiter plate is seeded with 50,000 cells/well the day before the assay. The cells are allowed to attach for 24 hours in 200 μL culture medium. On the day of the experiment, the medium is removed. Also, the cells are washed twice. The cells are incubated in assay buffer plus IBMX for 15 minutes at room temperature. Afterwards, the stimuli are added and are dissolved in assay buffer. The stimuli are present for 30 minutes. Then, the assay buffer is gently removed. The cell lysis reagent of the DiscoveRx cAMP kit is added. Thereafter, the standard protocol for developing the cAMP signal as described by the manufacturer is used (DiscoveRx Inc., USA). EC50 values for cAMP generation are calculated from the raw signal or are based on absolute cAMP levels as determined by a standard curve performed on each plate.
CHO—PO cells are transiently transfected with rat VPAC1 or VPAC2 receptor DNA.
For data set [3] the following is noted: 10 μM peptide in rat serum, 37° C. vs 4° C. with aprotinin, 18 hours; EC50,4C/EC50,37C.
Description: The rat serum is stored at 4° C. until use and is used within two weeks.
On Day 0, prepare two 100 μL aliquots of 10 μM peptide in rat serum by adding 10 μL peptide stock to 90 μL rat serum for each aliquot. Add 250 kIU aprotinin/mL to one of these aliquots. Store the aliquot with aprotinin at 4° C. Store the aliquot without aprotinin at 37° C. Allow the aliquots to incubate for 18 hours.
On Day 1, after incubation of the aliquots prepared on day 0 for 18 hours, prepare an incubation buffer containing PBS+1.3 mM CaCl2, 1.2 mM MgCl2, 2 mM glucose, and 0.25 mM IBMX. Prepare a plate with 11 serial 5× dilutions of peptide for the 4° C. and 37° C. aliquot for each peptide studied. […] Wash the plate(s) with cells twice in incubation buffer. Allow the plates to hold 50 μL incubation media per well for 15 minutes. Transfer 50 μL solution per well to the cells from the plate prepared with 11 serial 3× dilutions of peptide for the 4° C. and 37° C. aliquot for each peptide studied, using the maximal concentrations that are indicated by the primary screen, in duplicate. This step dilutes the peptide concentration by a factor of two. Incubate in room temperature for 30 minutes. Remove the supernatant. Add 40 μL/well of the DiscoveRx antibody/extraction buffer. Incubate on the shaker (300 rpm) for 1 hour. Proceed as normal with the DiscoveRx kit. Include cAMP standards in column 12. […]
Data set [4] addresses T2, human VPAC1 (Homo sapiens, UniProt P32241).
T2 sequence (P32241 31-457): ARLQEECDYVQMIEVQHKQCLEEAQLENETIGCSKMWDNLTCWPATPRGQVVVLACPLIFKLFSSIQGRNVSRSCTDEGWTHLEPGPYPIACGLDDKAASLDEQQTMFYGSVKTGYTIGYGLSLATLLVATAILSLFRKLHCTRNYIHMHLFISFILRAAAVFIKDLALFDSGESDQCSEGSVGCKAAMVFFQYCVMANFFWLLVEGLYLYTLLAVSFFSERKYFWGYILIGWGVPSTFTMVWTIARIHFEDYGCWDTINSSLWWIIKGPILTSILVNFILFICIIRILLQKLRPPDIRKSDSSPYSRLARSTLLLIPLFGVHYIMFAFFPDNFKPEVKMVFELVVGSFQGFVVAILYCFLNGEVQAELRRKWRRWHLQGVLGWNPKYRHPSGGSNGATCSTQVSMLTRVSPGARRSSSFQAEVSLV
Briefly: Filter binding assay, human VPAC1 membranes, 125I-labeled VIP tracer. The arrangement: expressed in transfected cells.

In data set [5] the target is T1, human VPAC2. In words: DiscoveRx cAMP in vitro potency, human VPAC2. The format is cell-based. Here is the method:
Also, the cells are washed twice. The cells are incubated in assay buffer plus IBMX for 15 minutes at room temperature. […] The stimuli are present for 30 minutes. Then, the assay buffer is gently removed. […] At day 3, the assay described above for the VPAC2 receptor cell line is performed.

For data set [6], the target named is T1, human VPAC2. Briefly: Filter binding assay, human VPAC2 membranes, 125I-labeled VIP tracer.

*1 amine or outer side, *2 acyl side, *3 side chain or, on linkers, in order; H or OH if unused. Where a SMILES comes first, the peptide text is derived from it. Side-chain parts run from the residue outwards. The star is where a group is joined. γGlu = O=C(O)[C@H](CCC(=O)[*:2])N[*:1]; Palmitoyl = CCCCCCCCCCCCCCCC(=O)*; Hexanoyl = CCCCCC(=O)*

Take `CCCCCCCCCCCCCCCC(=O)N[C@@H](CCC(=O)NCCCC[C@H](NC(=O)[C@@H]1CCCN1C(=O)[C@@H]1CCCN1C(=O)[C@@H]1CCCN1C(=O)[C@H](CO)NC(=O)[C@@H](NC(=O)[C@H](CCCNC(=N)N)NC(=O)[C@H](CO)NC(=O)[C@H](CC(N)=O)NC(=O)[C@H](CCCCN)NC(=O)[C@@H](NC(=O)[C@H](CO)NC(=O)[C@H](CCC(N)=O)NC(=O)[C@H](CC(C)C)NC(=O)[C@H](Cc1ccc(O)cc1)NC(=O)[C@H](CCCCN)NC(=O)[C@H](CCCCN)NC(=O)[C@H](C)NC(=O)[C@H](C)NC(=O)[C@@H](NC(=O)[C@H](CCC(N)=O)NC(=O)[C@H](CCCCN)NC(=O)[C@H](CCCNC(=N)N)NC(=O)[C@H](CC(C)C)NC(=O)[C@H](CCCNC(=N)N)NC(=O)[C@@H](NC(=O)[C@H](Cc1ccc(O)cc1)NC(=O)[C@H](CC(N)=O)NC(=O)[C@H](CC(=O)O)NC(=O)[C@@H](NC(=O)[C@H](Cc1ccccc1)NC(=O)[C@@H](NC(=O)[C@H](C)NC(=O)[C@H](CC(=O)O)NC(=O)[C@H](CO)NC(=O)[C@H](Cc1c[nH]cn1)NC(=O)CCCCC)C(C)C)[C@@H](C)O)[C@@H](C)O)C(C)C)[C@@H](C)CC)[C@@H](C)O)C(N)=O)C(=O)O` [Agonist P81] (Hexanoyl-HSDAVFTDNYTRLRKQVAAKKYLQSIKNSRTSPPPK([γGlu-Palmitoyl])-NH2): the EC50 in data set [1] is 0.01 nM; in data set [2] it was 0.05 nM; in data set [5], 0.18 nM. The “Rat Serum Stability (Estimated purity in % after 18 hours)” value in data set [3] is recorded as 68.05%. Also, the figures for the concentration for half-maximal inhibition (IC50) in data set [4] and in data set [6] were 228 nM and 0.8 nM, respectively.
